{
  "source": "paper PMC6032384",
  "about": "(International Journal of Molecular Sciences, 2018)",
  "key": {"HL-60 cells [1]": {"system": "HL-60 cells", "assay": "Cell morphology (May-Grunwald-Giemsa staining) and light scattering by flow cytometry", "format": "cell-based, human", "settings": "positive controls, DOX 2 µM, OXA 2.5 µM"}, "HL-60 cells [2]": {"system": "HL-60 cells", "format": "cell-based, human", "settings": "for DNA fragmentation (in words): positive controls, DOX 2 µM, 24 and 48 h", "procedure": "The internucleosomal DNA fragmentation and cell cycle distribution were assessed in HL-60 cells after 24 and 48 h of incubation with the [Ru(PPh3)2(Thy)(bipy)]PF6 complex in a DNA content-based assay using the dye propidium iodide (PI) and flow cytometry (Table 3). All DNA with a subdiploid size (sub-G0/G1) were considered to be fragmented. At concentrations of 1, 2, and 4 μM, the complex led to, respectively, 19.4%, 30.1%, and 36.2% DNA fragmentation after 24 h of incubation and to 12.5%, 26.7%, and 58.2% DNA fragmentation after 48 h of incubation.\n(§1) Light scattering features were determined by flow cytometry. The internucleosomal DNA fragmentation and cell cycle distribution were determined according to Nicoletti et al.. For apoptosis measurements, a FITC Annexin V Apoptosis Detection Kit I (BD Biosciences, San Jose, CA, USA) was used, and the analysis was performed, according to the manufacturer’s instructions. A protection assay using the pan-caspase inhibitor Z-VAD(OMe)-FMK (Cayman Chemical, Ann Arbor, MI, USA) was also evaluated. The mitochondrial transmembrane potential was determined by the retention of the dye rhodamine 123 [28]. The levels of ROS were measured, as previously described, using 2′,7′-dichlorofluorescin diacetate (DCF-DA, Sigma-Aldrich Co.). At least 1 × 10^4 events were recorded per sample using a BD LSRFortessa cytometer along with BD FACSDiva Software (BD Biosciences) and Flowjo Software 10 (Flowjo LCC, Ashland, OR, USA). The cellular debris was omitted from the analysis."}, "[3]": {"system": "MRC-5 (human lung fibroblast)", "assay": "Alamar blue (AB) cytotoxicity assay, MRC-5 noncancerous cells", "format": "cell-based", "settings": "MRC5 non-cancer cells, 72 h"}, "[4]": {"system": "BAD gene knockout immortalized mouse embryonic fibroblasts (BAD KO SV40 MEF)", "assay": "Alamar blue (AB) cytotoxicity assay, BAD KO SV40 MEF", "format": "cell-based", "settings": "Mus musculus, Fibroblast, 72 h"}, "HL-60 cells [5]": {"system": "HL-60 cells", "settings": "2 μM, TBE"}, "[6]": {"system": "PBMC (human peripheral blood mononuclear cell)", "assay": "Alamar blue (AB) cytotoxicity assay, PBMC noncancerous cells", "format": "cell-based", "settings": "PBMC non-cancer cells, 72 h"}, "HL-60 cells [7]": {"system": "HL-60 cells", "assay": "Annexin V-FITC/PI apoptosis assay by flow cytometry", "format": "cell-based, human", "settings": "annexin V-FITC/PI, 24 and 48 h", "procedure": "Additionally, annexin V, which is a Ca^2+-dependent protein with high affinity for phosphatidylserine, was conjugated to a fluorochrome to detect phosphatidylserine exposure using flow cytometry. Since phosphatidylserine exposure precedes the loss of membrane integrity, annexin V staining was used along with the dye PI to identify early and late apoptotic cells, as well as necrotic cells. Therefore, annexin V-FITC/PI double staining was applied to HL-60 cells that were treated with the [Ru(PPh3)2(Thy)(bipy)]PF6 complex after 24 and 48 h of incubation, and the numbers of viable, early apoptotic, late apoptotic, and necrotic cells were quantified by flow cytometry (Figure 5).\nFigure 5 Evaluation of the apoptosis induced by the [Ru(PPh3)2(Thy)(bipy)]PF6 complex (CRT) in HL-60 cells determined by flow cytometry using annexin V-FITC/PI staining after 24 and 48 h of incubation. (A) Representative flow cytometry dot plots. (B) Apoptotic cell quantification (annexin V-FITC positive cells). […] Data are presented as the mean ± S.E.M. of at the least three independent experiments. * p < 0.05 as compared with the negative control by ANOVA, followed by the Student Newman-Keuls test. […] Its quadrant percentages are just as hard to read: 24 h about Q1 0.640%, Q2 5.23%, Q4 85.6%, Q3 8.47%; 48 h about Q1 0.430%, Q2 3.07%, Q4 91.0%, Q3 5.52%.\nas §1"}, "[8]": {"system": "wild-type immortalized mouse embryonic fibroblasts (WT SV40 MEF)", "assay": "Alamar blue (AB) cytotoxicity assay, WT SV40 MEF", "format": "cell-based", "settings": "Mus musculus, Fibroblast, 72 h"}},
  "note": "Where two headings read alike, the source gives them in different places.",
  "data": [
    {"smiles": "COc1cccc2c1C(=O)c1c(O)c3c(c(O)c1C2=O)C[C@@](O)(C(=O)CO)C[C@@H]3O[C@H]1C[C@H](N)[C@H](O)[C@H](C)O1", "note": "[DOX, Doxorubicin, reference compound]", "values": [
      {"measurement": "Type of cell death", "setting": "HL-60 cells [1]", "result": "caused cell death by apoptosis"},
      {"measurement": "DNA content G0/G1", "setting": "HL-60 cells [2]; 2 µM, 24 h", "result": "19.9 ± 2.5", "unit": "%"},
      {"measurement": "DNA content G2/M", "setting": "HL-60 cells [2]; 2 µM, 24 h", "result": "8.9 ± 1.5", "unit": "%"},
      {"measurement": "DNA content S", "setting": "HL-60 cells [2]; 2 µM, 24 h", "result": "6.6 ± 1.6", "unit": "%"},
      {"measurement": "DNA content Sub-G0/G1 (DNA fragmentation)", "setting": "HL-60 cells [2]; 2 µM, 24 h", "result": "58.6 ± 2.5", "unit": "%"},
      {"measurement": "DNA content G0/G1", "setting": "HL-60 cells [2]; 2 µM, 48 h", "result": "21.9 ± 3.0", "unit": "%"},
      {"measurement": "DNA content G2/M", "setting": "HL-60 cells [2]; 2 µM, 48 h", "result": "3.8 ± 0.9", "unit": "%"},
      {"measurement": "DNA content S", "setting": "HL-60 cells [2]; 2 µM, 48 h", "result": "6.5 ± 0.6", "unit": "%"},
      {"measurement": "DNA content Sub-G0/G1 (DNA fragmentation)", "setting": "HL-60 cells [2]; 2 µM, 48 h", "result": "65.4 ± 2.8", "unit": "%"},
      {"measurement": "DNA fragmentation (in words)", "setting": "HL-60 cells [2]; OXA 2.5 µM", "result": "induced DNA fragmentation"},
      {"measurement": "IC50", "setting": "[3]; Homo sapiens", "result": 1500, "unit": "nM"},
      {"measurement": "IC50", "setting": "[4]", "result": 1300, "unit": "nM"},
      {"measurement": "Reduction of the number of viable cells", "setting": "HL-60 cells [5]; 24 h", "result": 58.0, "unit": "%"},
      {"measurement": "Reduction of the number of viable cells", "setting": "HL-60 cells [5]; 48 h", "result": 88.1, "unit": "%"},
      {"measurement": "IC50", "setting": "[6]; Homo sapiens", "result": 5100, "unit": "nM"},
      {"measurement": "Percentage of apoptotic cells (early apoptotic cells + late apoptotic cells)", "setting": "HL-60 cells [7]", "result": "caused an increase"},
      {"measurement": "IC50", "setting": "[8]", "result": 800, "unit": "nM"}
    ]},
    {"smiles": "O=C1[O][Pt]2([NH][C@@H]3CCCC[C@H]3[NH]2)[O]C1=O", "note": "[OXA, Oxaliplatin, reference compound]", "values": [
      {"measurement": "Type of cell death", "setting": "HL-60 cells [1]", "result": "caused cell death by apoptosis"},
      {"measurement": "DNA content G0/G1", "setting": "HL-60 cells [2]; 2.5 µM, 24 h", "result": "31.4 ± 3.0", "unit": "%"},
      {"measurement": "DNA content G2/M", "setting": "HL-60 cells [2]; 2.5 µM, 24 h", "result": "26.0 ± 3.6", "unit": "%"},
      {"measurement": "DNA content S", "setting": "HL-60 cells [2]; 2.5 µM, 24 h", "result": "11.6 ± 2.3", "unit": "%"},
      {"measurement": "DNA content Sub-G0/G1 (DNA fragmentation)", "setting": "HL-60 cells [2]; 2.5 µM, 24 h", "result": "21.9 ± 3.3", "unit": "%"},
      {"measurement": "DNA content G0/G1", "setting": "HL-60 cells [2]; 2.5 µM, 48 h", "result": "42.9 ± 2.8", "unit": "%"},
      {"measurement": "DNA content G2/M", "setting": "HL-60 cells [2]; 2.5 µM, 48 h", "result": "19.1 ± 3.3", "unit": "%"},
      {"measurement": "DNA content S", "setting": "HL-60 cells [2]; 2.5 µM, 48 h", "result": "14.2 ± 1.2", "unit": "%"},
      {"measurement": "DNA content Sub-G0/G1 (DNA fragmentation)", "setting": "HL-60 cells [2]; 2.5 µM, 48 h", "result": "18.4 ± 4.4", "unit": "%"},
      {"measurement": "Cell cycle arrest", "setting": "HL-60 cells [2]; OXA 2.5 µM", "result": "cell cycle arrest at the G2/M phase"},
      {"measurement": "DNA fragmentation (in words)", "setting": "HL-60 cells [2]; OXA 2.5 µM", "result": "induced DNA fragmentation"},
      {"measurement": "IC50", "setting": "[3]", "result": 1300, "unit": "nM"},
      {"measurement": "IC50", "setting": "[6]", "result": 9400, "unit": "nM"},
      {"measurement": "Percentage of apoptotic cells (early apoptotic cells + late apoptotic cells)", "setting": "HL-60 cells [7]", "result": "caused an increase"}
    ]}
  ]
}
